pIC50: −log10 of the molar value. “And” between values parts separate entries of the source, which are not always exact repeats. Equal entries are not always repeated.
Test system: 266295-075-R-J1-PDC spheroid viability
Assay: Anticancer human tumor 266295-075-R-J1-PDC patient-derived head and neck squamous carcinoma cell line growth inhibition [POLQ]
Settings: spheroids with HUVEC and MSC; for viability, T/C: stronger effect = lower value
Method: Multicellular complex tumor spheroid response to Polymerase (POL) inhibitors (novobiocin, ART-558, RP6685) in combination with a variety of drugs and investigational agents in selected tumor cell lines
The POL inhibitors (novobiocin, ART-558, and RP6685) were evaluated both individually and in combination with standard of care and investigational anticancer small molecules within a complex spheroid model of solid tumors. . Complex spheroids include a stromal component modeled by human endothelial cells (HUVEC) and fibroblasts modeled by human mesenchymal stem cells (MSCs). The concentration ranges selected for each drug and investigational agent were based upon clinically achievable concentrations if the clinical Cmax of the agent was known.
Compounds. The drugs and investigational agents: novobiocin (NSC847541), ART-558 (NSC835418), RP-6685 (NSC848927), peposertib (NSC802822), ceralasertib (NSC780249), elimusertib (NSC800525), camonsertib (NSC841442), AZD-1390 (NSC803789), olaparib (NSC753686), talazoparib (NSC767125), rucaparib (NSC756644), sotorasib (NSC818433), MRTX-1133 (NSC836407), SN-38 (NSC673596), topotecan (NSC609699), epotoside (NSC141540), doxorubicin (NSC123127), gemcitabine (NSC613327), 5-fluorouracil (NSC19893), paclitaxel (NSC125973), vemurafenib (NSC761431), MSA-2 (NSC828583), SN-011 (NSC837082), adavosertib (NSC754352), prexasertib (NSC758257), carboplatin (NSC241240) and oxaliplatin (NSC266046), were obtained from the National Cancer Institute (NCI) Developmental Therapeutics Program Chemical Repository (21). The FDA-approved anticancer drug set is available from the Developmental Therapeutics Program at https://dtp.cancer.gov/organization/dscb/obtaining/. […] The stock solutions were prepared in dimethyl sulfoxide (DMSO, Sigma-Aldrich, St. Louis, MO, cat. D2650), except for the platinum compounds which were prepared in saline (Quality Biological, Gaithersburg, MD, cat. 114-055-101), at 800-fold the tested concentration and stored at -70 degrees C prior to their use. All drugs and investigational agents were tested over a range starting from a high concentration at or near the clinical Cmax and decreasing in half-log increments. If the clinical Cmax for an agent had not been determined, the highest concentration tested was 10 microM, except for SN-38, which was tested at a high concentration of 1 microM.
Cell Culture. All cells were maintained in an incubator at 37 degrees C and 5% CO2 with 95% humidity. The PDC lines were cultured according to standard operating procedures established by the NCI PDMR (https://pdmr.cancer.gov). Table 3 of the manuscript, lists the cell lines along with the number of the three cell types plated to form the mct-spheroids and media for tumor cell growth. After thawing, all PDC lines, except 997537-175-T-J1-PDC and 415267-285-R-J2-PDC, were cultured in Matrigel-coated flasks prepared with a working solution of 1X Ham's F-12 nutrient mix, without supplementation (Thermo Fisher Scientific, cat. 11765054), 100 U/mL penicillin-streptomycin (Thermo Fisher Scientific, cat. 15140122), and 2.5% Matrigel (Corning Inc., Corning, NY, cat. 354248) for the first three passages. The two PDC lines 997537-175-T-J1-PDC and 415267-285-R-J2-PDC were cultured on uncoated flasks. The 857933-349-R-J2-PDC line was cultured in 6C/Colon 1B media containing advanced DMEM/F-12 (Thermo Fisher Scientific, cat. 12634028), 10 mM HEPES (Thermo Fisher Scientific, cat. 15630080), 1X GlutaMAX supplement (Thermo Fisher Scientific, cat. 35050061), 0.1 mg/mL primocin (InvivoGen, San Diego, CA, cat. ant-pm-2), 10% defined fetal bovine serum, heat inactivated (HyClone Laboratories Inc., Logan, UT, cat. SH30070.03HI), 50% L-WRN conditioned media (ATCC, cat. CRL-3276), 1.25 mM N-Acetyl-L-cysteine (Sigma-Aldrich, cat. A9165), 10 mM nicotinamide (Sigma-Aldrich, cat. N0636), 1X B-27 supplement (Thermo Fisher Scientific, cat. 17504044), 1X N-2 supplement (Thermo Fisher Scientific, cat. […]
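Note: spheroids exposed to compounds for seven days before readout.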

Nc1ccn(C2OC(CO)C(O)C2(F)F)c(=O)n1 (stereo not drawn)
viability, T/C (compound 0.0316 µM): 85.5% and 98.5% and 105% | viability, T/C (compound 0.1 µM): 81.7% and 117% and 83.4% | viability, T/C (compound 0.316 µM): 81.2% and 85.9% and 88.4% | viability, T/C (compound 1 µM): 64.9% and 81.8% and 83.7% | viability, T/C (compound 3.16 µM): 84.6% and 85.2% and 85.7% | viability, T/C (compound 10 µM): 75.2% and 82.7% and 85.4% | pIC50 (curve of compound): < 5.00

CCc1cc2c(N3CCc4c(cc(Cn5ccnc5)cc4-c4cn(C)nc4C(F)(F)F)C3=O)cc(C)nc2c(OC)n1
viability, T/C (compound 0.0316 µM): 98.5% and 103% and 90.3% | viability, T/C (compound 0.1 µM): 95.8% and 103% and 98.5% | viability, T/C (compound 0.316 µM): 91.9% and 89.5% and 109% | viability, T/C (compound 1 µM): 120% and 97% and 110% | viability, T/C (compound 3.16 µM): 123% and 113% and 127% | viability, T/C (compound 10 µM): 128% (2×) and 130% | pIC50 (curve of compound): < 5.00

COc1cccc(OCCCN)c1-c1cc(Nc2cnc(C#N)cn2)n[nH]1
viability, T/C (compound 0.00316 µM): 109% and 97% and 97.8% | viability, T/C (compound 0.01 µM): 88.7% and 92.5% and 82.9% | viability, T/C (compound 0.0316 µM): 70.5% and 72.5% and 94.9% | viability, T/C (compound 0.1 µM): 77.6% and 81.7% and 73.8% | viability, T/C (compound 0.316 µM): 73.2% and 70% and 74.8% | viability, T/C (compound 1 µM): 85% and 73.7% and 71.7% | pIC50 (curve of compound): < 6.00

COc1cc2cc(C(=O)CCC(=O)O)sc2cc1OC + Cc1cccc(N(C)C(=O)C2C(O)CCN2c2nc(C)cc(C(F)(F)F)c2C#N)c1
pIC50 (curve of first compound, second compound 0.0316 µM): < 5.00 | pIC50 (curve of first compound, second compound 0.1 µM): < 5.00 | pIC50 (curve of first compound, second compound 0.316 µM): < 5.00 | pIC50 (curve of first compound, second compound 1 µM): < 5.00 | pIC50 (curve of first compound, second compound 3.16 µM): < 5.00 | pIC50 (curve of first compound, second compound 10 µM): < 5.00 | viability, T/C (second compound 0.0316 µM, first compound 0.0316 µM): 118% | viability, T/C (second compound 0.0316 µM, first compound 0.1 µM): 112% | viability, T/C (second compound 0.0316 µM, first compound 0.316 µM): 90% | viability, T/C (second compound 0.0316 µM, first compound 1 µM): 117% | viability, T/C (second compound 0.0316 µM, first compound 3.16 µM): 95.7% | viability, T/C (second compound 0.0316 µM, first compound 10 µM): 96% | viability, T/C (second compound 0.1 µM, first compound 0.0316 µM): 113% | viability, T/C (second compound 0.1 µM, first compound 0.1 µM): 103% | viability, T/C (second compound 0.1 µM, first compound 0.316 µM): 82.9% | viability, T/C (second compound 0.1 µM, first compound 1 µM): 111% | viability, T/C (second compound 0.1 µM, first compound 3.16 µM): 115% | viability, T/C (second compound 0.1 µM, first compound 10 µM): 115% | viability, T/C (second compound 0.316 µM, first compound 0.0316 µM): 134% | viability, T/C (second compound 0.316 µM, first compound 0.1 µM): 112% | viability, T/C (second compound 0.316 µM, first compound 0.316 µM): 92.6% | viability, T/C (second compound 0.316 µM, first compound 1 µM): 114% | viability, T/C (second compound 0.316 µM, first compound 3.16 µM): 87% | viability, T/C (second compound 0.316 µM, first compound 10 µM): 84.8% | viability, T/C (second compound 1 µM, first compound 0.0316 µM): 106% | viability, T/C (second compound 1 µM, first compound 0.1 µM): 87.2% | viability, T/C (second compound 1 µM, first compound 0.316 µM): 126% | viability, T/C (second compound 1 µM, first compound 1 µM): 104% | viability, T/C (second compound 1 µM, first compound 3.16 µM): 110% | viability, T/C (second compound 1 µM, first compound 10 µM): 80.3% | viability, T/C (second compound 3.16 µM, first compound 0.0316 µM): 101% | viability, T/C (second compound 3.16 µM, first compound 0.1 µM): 112% | viability, T/C (second compound 3.16 µM, first compound 0.316 µM): 116% | viability, T/C (second compound 3.16 µM, first compound 1 µM): 109% | viability, T/C (second compound 3.16 µM, first compound 3.16 µM): 98.2% | viability, T/C (second compound 3.16 µM, first compound 10 µM): 91.3% | viability, T/C (second compound 10 µM, first compound 0.0316 µM): 97.2% | viability, T/C (second compound 10 µM, first compound 0.1 µM): 109% | viability, T/C (second compound 10 µM, first compound 0.316 µM): 102% | viability, T/C (second compound 10 µM, first compound 1 µM): 104% | viability, T/C (second compound 10 µM, first compound 3.16 µM): 109% | viability, T/C (second compound 10 µM, first compound 10 µM): 89.2%
